Experimental data as given in the supplement of paper PMC7600603.

Assays:
DLD1 NRF2-GOF [1] = test: TC50 cytotoxicity; higher = less toxic; conditions: 72 h; CellTox Green cytotoxicity
In short: (§1)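 In 384-well plates, isogenic DLD1 cells with NRF2 wild-type or CRISPR-edited status, grown in DMEM with 10% FBS, received library compounds at 5 concentrations spanning a 10,000-fold range. At 72 h, CellTox Green signals were read on a Pherastar FS reader and scaled between vehicle wells and 100-μM positive-control wells. Cytotoxicity endpoints, TC50 and a drug sensitivity score based on normalised area under the curve, came from logistic dose-response fits.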

DLD1 NRF2-WT [2] = test: TC50 cytotoxicity; higher = less toxic; conditions: 72 h; CellTox Green cytotoxicity
In short: as §1

DLD1 NRF2-GOF [3] = conditions: 72 h; CellTiter-Glo viability
In short: (§2)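 In 384-well plates, library compounds were applied at 5 concentrations spanning a 10,000-fold range to isogenic DLD1 colorectal cancer cells, NRF2 wild-type or CRISPR gain-of-function, maintained in DMEM with 10% FBS. A Pherastar FS reader recorded CellTiter-Glo signal at 72 h, with normalisation to vehicle wells and 100-μM positive-control wells. Curves were fitted with a four-parameter logistic model. EC50 and drug sensitivity score, a normalised area under the curve, came from those curves.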

DLD1 NRF2-WT [4] = conditions: 72 h; CellTiter-Glo viability
In short: as §2

DLD1 NRF2-GOF [5] = test: drug sensitivity score (DSS) cytotoxicity (DSS score); higher = more toxic; extreme values may be limits of the assay; conditions: 72 h; CellTox Green cytotoxicity
In short: as §1

DLD1 NRF2-WT [6] = test: as above; conditions: 72 h; CellTox Green cytotoxicity
In short: as §1

DLD1 NRF2-GOF [7] = test: drug sensitivity score (DSS) viability (DSS score); higher = more sensitive; extreme values may be limits of the assay; conditions: 72 h; CellTiter-Glo viability
In short: as §2

DLD1 NRF2-WT [8] = test: as above; conditions: 72 h; CellTiter-Glo viability
In short: as §2

| SMILES | EC50 viability (DLD1 NRF2-GOF [3]) [nM] | EC50 viability (DLD1 NRF2-WT [4]) [nM] | TC50 cytotoxicity (DLD1 NRF2-GOF [1]) [nM] | TC50 cytotoxicity (DLD1 NRF2-WT [2]) [nM] | drug sensitivity score (DLD1 NRF2-GOF [5]) | drug sensitivity score (DLD1 NRF2-WT [6]) | drug sensitivity score (DLD1 NRF2-GOF [7]) | drug sensitivity score (DLD1 NRF2-WT [8]) |
| --- | --- | --- | --- | --- | --- | --- | --- | --- |
| Nc1nc2[nH]cnc2c(=S)[nH]1 [Thioguanine] | 1290 | 3500 | > 10000 | > 10000 | 0 | 0.2 | 9.4 | 4.4 |
| COC(=O)C[C@](O)(CCCC(C)(C)O)C(=O)O[C@@H]1C(OC)=C[C@]23CCCN2CCc2cc4c(cc2[C@H]13)OCO4 [Omacetaxine] | 54.6 | 51.9 | 329 | 346 | 8.4 | 10.1 | 26.9 | 27.6 |
| Nc1ccn([C@@H]2O[C@H](CO)[C@@H](O)[C@@H]2O)c(=O)n1 [Cytarabine] | 477 | 650 | > 10000 | > 10000 | 0 | 0 | 6.5 | 5 |
| N.N.[Cl][Pt][Cl] [Cisplatin] | 30600 | 27900 | – | – | 1.2 | 1.4 | 4.8 | 5.2 |
| CC(=O)O[C@@]12CO[C@@H]1C[C@H](O)[C@@]1(C)C(=O)[C@H](O)C3=C(C)[C@@H](OC(=O)[C@H](O)[C@@H](NC(=O)OC(C)(C)C)c4ccccc4)C[C@@](O)([C@@H](OC(=O)c4ccccc4)[C@H]21)C3(C)C [Docetaxel] | 2.1 | 3.4 | – | – | 6.6 | 6.8 | 26.6 | 25.2 |
| COc1cc(OC)c(/C=C/S(=O)(=O)Cc2ccc(OC)c(NCC(=O)O)c2)c(OC)c1 [Rigosertib] | 107 | 106 | 190 | – | 9.4 | 5.9 | 19 | 21 |
| CO[C@H]1C(=O)[C@]2(C)[C@@H](OC)C[C@H]3OC[C@@]3(OC(C)=O)[C@H]2[C@H](OC(=O)c2ccccc2)[C@]2(O)C[C@H](OC(=O)[C@H](O)[C@@H](NC(=O)OC(C)(C)C)c3ccccc3)C(C)=C1C2(C)C [Cabazitaxel] | 1.6 | 1.5 | > 1000 | – | 0.3 | 6.6 | 25.7 | 27.1 |
| Cc1c2oc3c(C)ccc(C(=O)N[C@@H]4C(=O)N[C@H](C(C)C)C(=O)N5CCC[C@H]5C(=O)N(C)CC(=O)N(C)[C@@H](C(C)C)C(=O)O[C@@H]4C)c3nc-2c(C(=O)N[C@@H]2C(=O)N[C@H](C(C)C)C(=O)N3CCC[C@H]3C(=O)N(C)CC(=O)N(C)[C@@H](C(C)C)C(=O)O[C@@H]2C)c(N)c1=O [Dactinomycin] | 1.3 | 6.7 | > 1000 | – | 0 | 1.4 | 31.3 | 24.8 |
| Cc1ccc(C(=O)N(CCCN)[C@@H](c2oc3cc(Cl)ccc3c(=O)c2Cc2ccccc2)C(C)C)cc1 | 3.1 | 2.8 | > 100 | – | 1.5 | 2.8 | 13.5 | 12.7 |
| CCN(CC)CCOc1ccc(/C(=C(/Cl)c2ccccc2)c2ccccc2)cc1 [Clomifene] | 1840 | 3080 | – | – | – | – | 7.8 | 5.4 |
| CO[C@H]1C[C@@H]2CC[C@@H](C)[C@@](O)(O2)C(=O)C(=O)N2CCCC[C@H]2C(=O)O[C@H]([C@H](C)C[C@@H]2CC[C@@H](OC(=O)C(C)(CO)CO)[C@H](OC)C2)CC(=O)[C@H](C)/C=C(\C)[C@@H](O)[C@@H](OC)C(=O)[C@H](C)C[C@H](C)/C=C/C=C/C=C/1C [Temsirolimus] | > 100 | > 100 | – | – | – | – | 1.3 | 4.1 |
| Cc1sc2c(c1C)C(c1ccc(Cl)cc1)=N[C@@H](CC(=O)Nc1ccc(OCCOCCOCCOCCNc3cccc4c3C(=O)N(C3CCC(=O)NC3=O)C4=O)cc1)c1nnc(C)n1-2 (some centres undefined) [ARV-825] | 36.5 | 12.9 | > 300 | – | 1.1 | 4 | 5 | 9.1 |
| COc1cc([C@@H]2c3cc4c(cc3[C@@H](O[C@@H]3O[C@@H]5CO[C@@H](C)O[C@H]5[C@H](O)[C@H]3O)[C@H]3COC(=O)[C@H]23)OCO4)cc(OC)c1O [Etoposide] | 936 | 1090 | > 10000 | – | 1.8 | 2.7 | 6.3 | 8.5 |
| Cc1nc(Nc2n[nH]c3c2CN(C(=O)N[C@H](CN(C)C)c2ccccc2)C3(C)C)c2sccc2n1 | 21.5 | 21 | > 10000 | – | 1.8 | 2.1 | 27.5 | 28.2 |
| Clc1ccc(Nc2nnc(Cc3ccncc3)c3ccccc23)cc1 [Vatalanib] | > 10000 | > 10000 | – | – | – | – | 0 | 0 |
| COc1ccc(S(=O)(=O)Nc2cccnc2Nc2ccc(O)cc2)cc1 [ABT-751] | 301 | 269 | 1070 | – | 3.6 | 2.1 | 14.4 | 15.3 |

The next lines start with results.

| EC50 viability (DLD1 NRF2-GOF [3]) [nM] | EC50 viability (DLD1 NRF2-WT [4]) [nM] | SMILES | TC50 cytotoxicity (DLD1 NRF2-GOF [1]) [nM] | TC50 cytotoxicity (DLD1 NRF2-WT [2]) [nM] | drug sensitivity score (DLD1 NRF2-GOF [5]) | drug sensitivity score (DLD1 NRF2-WT [6]) | drug sensitivity score (DLD1 NRF2-GOF [7]) | drug sensitivity score (DLD1 NRF2-WT [8]) |
| --- | --- | --- | --- | --- | --- | --- | --- | --- |
| > 10000 | > 10000 | C[C@]1(O)C[C@@H](c2nc(-c3ccc4ccc(-c5ccccc5)nc4c3)c3c(N)nccn32)C1 [Linsitinib] | > 10000 | > 10000 | 0 | 0 | 0 | 0 |
| > 1000 | 11.7 | Cc1nc(-c2cn3c(n2)-c2ccc(-c4cnn(C(C)(C)C(N)=O)c4)cc2OCC3)n(C(C)C)n1 [Taselisib] | > 1000 | > 1000 | 0 | 0.4 | 0.9 | 5.5 |
| > 10000 | > 10000 | Cc1cn(-c2cc(NC(=O)c3ccc(C)c(Nc4nccc(-c5cnccn5)n4)c3)cc(C(F)(F)F)c2)cn1 [Radotinib] | > 10000 | > 10000 | 0.3 | 0 | 0.4 | 0 |
| 93 | 38.5 | COc1cc(Nc2ncc(F)c(Nc3ccc4c(n3)N(COP(=O)(O)O)C(=O)C(C)(C)O4)n2)cc(OC)c1OC [Fostamatinib] | > 2500 | > 2500 | 0.2 | 0 | 7.4 | 6.2 |
| 349 | > 10000 | N#Cc1ccnc(N2C(=O)CC[C@H]2C(=O)N(c2cncc(F)c2)[C@H](C(=O)NC2CC(F)(F)C2)c2ccccc2Cl)c1 [Ivosidenib] | > 10000 | > 10000 | 0 | 0 | 6.1 | 0.5 |
| 4.9 | 6.3 | CC[C@]1(O)C[C@H]2CN(CCc3c([nH]c4ccccc34)[C@@](C(=O)OC)(c3cc4c(cc3OC)N(C=O)[C@H]3[C@@](O)(C(=O)OC)[C@H](OC(C)=O)[C@]5(CC)C=CCN6CC[C@]43[C@@H]65)C2)C1 [Vincristine] | > 1000 | – | 5.5 | 6.8 | 22.8 | 22.4 |
| 450 | 610 | CNC(=O)c1ccccc1Nc1nc(Nc2ccc3c(c2OC)CCC[C@H](N2CCN(CCO)CC2)C3)ncc1Cl | – | 1210 | 1.8 | 3 | 9.3 | 9.2 |
| 158 | 337 | CCc1c2c(nc3ccc(O)cc13)-c1cc3c(c(=O)n1C2)COC(=O)[C@]3(O)CC [SN-38] | – | 1670 | 2 | 2.3 | 17.5 | 12.7 |
| 638 | 576 | Cc1cc(Nc2cc(N3CCN(C)CC3)nc(/C=C/c3ccccc3)n2)n[nH]1 [ENMD-2076] | – | > 10000 | 4.4 | 1.4 | 11.3 | 11.4 |
| 812 | 878 | Cn1cc(-c2[nH]c3cc(NC(=O)[C@H](N)C4CCCCC4)cc4c3c2C=NNC4=O)cn1 | – | > 10000 | 2.7 | 1 | 8.8 | 9 |
| 162 | 143 | CC[C@]12C=CCN3CC[C@@]4(c5cc([C@@]6(C(=O)OC)C[C@@H]7C[C@@H](C(C)(F)F)CN(Cc8c6[nH]c6ccccc86)C7)c(OC)cc5N(C)[C@H]4[C@@](O)(C(=O)OC)[C@@H]1OC(C)=O)[C@@H]32 [Vinflunine] | – | > 1000 | 1 | 1.3 | 6.9 | 7 |
| 99.2 | 155 | Cc1cc(Nc2cc(N3CCN(C)CC3)nc(Sc3ccc(NC(=O)C4CC4)cc3)n2)n[nH]1 [Tozasertib] | 31.1 | – | 11.6 | 5.7 | 15.9 | 14.2 |
| 4.8 | 5.1 | CC[C@@H]1C(=O)N(C)c2cnc(Nc3ccc(C(=O)N[C@H]4CC[C@H](N5CCN(CC6CC6)CC5)CC4)cc3OC)nc2N1C(C)C [Volasertib] | – | – | 6 | 7 | 18.8 | 20.7 |
| 114 | 226 | Cc1ccc(C(=O)Nc2ccc(CN3CCN(C)CC3)c(C(F)(F)F)c2)cc1C#Cc1cnc2cccnn12 [Ponatinib] | – | – | – | – | 6 | 4 |
| 92.6 | > 1000 | Cc1[nH]nc(C(F)(F)F)c1Cc1sc2c(c1C(=O)N1C[C@](C)(O)CO1)c(=O)n(C)c(=O)n2C(C)C [AZD3965] | – | – | – | – | 3.5 | 2.3 |
| 578 | 344 | CN[C@@H]1C[C@H]2O[C@@](C)([C@@H]1OC)n1c3ccccc3c3c4c(c5c6ccccc6n2c5c31)C(=O)N[C@H]4O [UCN-01] | – | 302 | 5 | 10.4 | 12.6 | 16.4 |
